# In patent EP4813381A1, “PHARMACEUTICAL USE OF GUAIANE SESQUITERPENE DERIVATIVE” (Nanjing University Of Chinese Medicine, priority 2023, dated 2025):
# Assays:
# [1] = test system: MC903-induced atopic dermatitis (AD); test: MC903-induced ear atopic dermatitis mouse model, oral Compound 20: dermatitis score, ear thickness, serum IgE; conditions: for IgE: serum, AD mice
# [2] = test system: CCl4-induced liver injury; test: CCl4 acute liver injury model in mice: serum ALT and AST; format: in vivo, C57BL/6 mice; conditions: 3 days (method: U/L)
# Description: The drug of the present invention, prepared according to Example 2; Silybin, Shanghai Yuanye Biotechnology Co., Ltd.; Olive oil, Beijing […] Olive Oil Development Center; Analytical grade carbon tetrachloride (CCl4), Shantou Xilong Chemical Factory; Sodium carboxymethyl cellulose (CMC-Na), Guangdong Shantou Xilong Chemical Factory; RNA Isolater Total RNA Extraction Reagent, […] RT Supermix for qPCR, Nanjing Vazyme Biotech Co., Ltd.; AceQ qPCR SYBR Green Master Mix, Shanghai Yeasen Biotechnology Co., Ltd.; Aspartate Transaminase (AST/GOT) Colorimetric Test Kit, Alanine Transaminase (ALT/GPT) Colorimetric Test Kit, Wuhan Elabscience Biotechnology Co., Ltd. • Experimental animals: […] SCXK(Su)2019-002. […] They were acclimated for 7 days before use in experiments. • Experimental Methods: Establishment of Acute Liver Injury Model in Mice and Group-Specific Drug Administration • Mice were randomly assigned to groups. […] One hour after the final drug administration, blood was collected from the retinal venous plexus. […] Serum was aspirated, aliquoted, and stored at -70 °C for future use. After blood collection, euthanize mice by cervical dislocation. Perform laparotomy to remove the liver. Rinse twice with pre-chilled PBS. Excise the left hepatic lobe tissue. […] Store remaining tissue at -70 °C for future use. • Serum AST and ALT Assay: Use 10 μL of each sample for testing. Determine mouse serum AST and ALT levels according to the operating manual. Measure absorbance at 510 nm using an enzyme-linked immunosorbent assay (ELISA) reader. Calculate sample concentration (U/L) based on the standard curve. Data Statistics: All data are expressed as means ± standard error of the mean (S.E.M.). Differences were analyzed for significance using analysis of variance (ANOVA). For groups showing significant differences in ANOVA, one-way ANOVA followed by Dunnett's test was performed to compare intergroup differences.
# [3] = test system: renal injury markers (Ngal, Havcr1), inflammatory cytokines (TNF, IL-6, IL-1), fibrosis-related factors (α-Sma, Col1a1, Tgfb1); test: Folic acid acute kidney injury model in mice: Q-PCR of kidney tissue; format: in vivo, C57BL/6 mice; parameters: Tnf / Il1 / Il6: unit not given here; conditions: kidney mRNA, acute model (FA)
# [4] = test system: MDSCs; test: Inhibition of MDSC chemotaxis (Transwell, Hepa1-6 tumor-conditioned medium); format: cell-based, mice; conditions: 12 h treatment, 24 h Transwell
# In short: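 Mouse bone marrow cells were differentiated into MDSCs with GM-CSF and IL-4 (10 ng/mL each) and placed in Transwell upper chambers. Migration toward Hepa1-6 tumour-conditioned medium (24 h supernatant, filtered) or normal medium in the lower chamber was allowed for 24 h.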
smiles,measurement,setting,value
CN(C)C[C@@H]1C(=O)O[C@H]2[C@H]1CC[C@@]1(C)C[C@]13CC[C@@](C)(O)[C@H]23 [compound 20],atopic dermatitis score,"[1]; oral 0.1 mg/kg, Day 1",0.00±0.00
same,ear thickness,"[1]; oral 0.1 mg/kg, Day 1",0.20±0.00 mm
same,atopic dermatitis score,"[1]; oral 0.1 mg/kg, Day 3",0.67±0.21
same,ear thickness,"[1]; oral 0.1 mg/kg, Day 3",0.24±0.00 mm
same,atopic dermatitis score,"[1]; oral 0.1 mg/kg, Day 5",1.33±0.21
same,ear thickness,"[1]; oral 0.1 mg/kg, Day 5",0.26±0.00 mm
same,atopic dermatitis score,"[1]; oral 0.1 mg/kg, Day 7",2.17±0.17
same,ear thickness,"[1]; oral 0.1 mg/kg, Day 7",0.26±0.00 mm
same,atopic dermatitis score,"[1]; oral 0.1 mg/kg, Day 8",2.50±0.22
same,ear thickness,"[1]; oral 0.1 mg/kg, Day 8",0.27±0.00 mm
same,atopic dermatitis score,"[1]; oral 0.1 mg/kg, Day 9",3.00±0.26
same,ear thickness,"[1]; oral 0.1 mg/kg, Day 9",0.28±0.00 mm
same,atopic dermatitis score,"[1]; oral 0.1 mg/kg, Day 10",3.50±0.22
same,ear thickness,"[1]; oral 0.1 mg/kg, Day 10",0.29±0.00 mm
same,atopic dermatitis score,"[1]; oral 0.1 mg/kg, Day 11",3.67±0.21
same,ear thickness,"[1]; oral 0.1 mg/kg, Day 11",0.30±0.00 mm
same,atopic dermatitis score,"[1]; oral 0.1 mg/kg, Day 12",3.33±0.21
same,ear thickness,"[1]; oral 0.1 mg/kg, Day 12",0.30±0.00 mm
same,atopic dermatitis score,"[1]; oral 0.1 mg/kg, Day 13",3.00±0.00
same,ear thickness,"[1]; oral 0.1 mg/kg, Day 13",0.30±0.00 mm
same,atopic dermatitis score,"[1]; oral 0.1 mg/kg, Day 14",2.67±0.21
same,ear thickness,"[1]; oral 0.1 mg/kg, Day 14",0.29±0.00 mm
same,atopic dermatitis score,"[1]; oral 1 mg/kg, Day 1",0.00±0.00
same,ear thickness,"[1]; oral 1 mg/kg, Day 1",0.20±0.00 mm
same,atopic dermatitis score,"[1]; oral 1 mg/kg, Day 3",0.50±0.22
same,ear thickness,"[1]; oral 1 mg/kg, Day 3",0.23±0.00 mm
same,atopic dermatitis score,"[1]; oral 1 mg/kg, Day 5",1.17±0.17
same,ear thickness,"[1]; oral 1 mg/kg, Day 5",0.24±0.00 mm
same,atopic dermatitis score,"[1]; oral 1 mg/kg, Day 7",1.67±0.21
same,ear thickness,"[1]; oral 1 mg/kg, Day 7",0.26±0.00 mm
same,atopic dermatitis score,"[1]; oral 1 mg/kg, Day 8",2.17±0.17
same,ear thickness,"[1]; oral 1 mg/kg, Day 8",0.27±0.00 mm
same,atopic dermatitis score,"[1]; oral 1 mg/kg, Day 9",2.83±0.17
same,ear thickness,"[1]; oral 1 mg/kg, Day 9",0.28±0.00 mm
same,atopic dermatitis score,"[1]; oral 1 mg/kg, Day 10",3.00±0.00
same,ear thickness,"[1]; oral 1 mg/kg, Day 10",0.28±0.00 mm
same,atopic dermatitis score,"[1]; oral 1 mg/kg, Day 11",3.17±0.17
same,ear thickness,"[1]; oral 1 mg/kg, Day 11",0.28±0.00 mm
same,atopic dermatitis score,"[1]; oral 1 mg/kg, Day 12",2.67±0.21
same,ear thickness,"[1]; oral 1 mg/kg, Day 12",0.27±0.00 mm
same,atopic dermatitis score,"[1]; oral 1 mg/kg, Day 13",2.50±0.22
same,ear thickness,"[1]; oral 1 mg/kg, Day 13",0.27±0.00 mm
same,atopic dermatitis score,"[1]; oral 1 mg/kg, Day 14",2.00±0.00
same,ear thickness,"[1]; oral 1 mg/kg, Day 14",0.27±0.00 mm
same,atopic dermatitis score,"[1]; oral 10 mg/kg, Day 1",0.00±0.00
same,ear thickness,"[1]; oral 10 mg/kg, Day 1",0.20±0.00 mm
same,atopic dermatitis score,"[1]; oral 10 mg/kg, Day 3",0.67±0.21
same,ear thickness,"[1]; oral 10 mg/kg, Day 3",0.23±0.00 mm
same,atopic dermatitis score,"[1]; oral 10 mg/kg, Day 5",1.00±0.00
same,ear thickness,"[1]; oral 10 mg/kg, Day 5",0.25±0.00 mm
same,atopic dermatitis score,"[1]; oral 10 mg/kg, Day 7",2.00±0.00
same,ear thickness,"[1]; oral 10 mg/kg, Day 7",0.26±0.00 mm
same,atopic dermatitis score,"[1]; oral 10 mg/kg, Day 8",2.50±0.22
same,ear thickness,"[1]; oral 10 mg/kg, Day 8",0.27±0.00 mm
same,atopic dermatitis score,"[1]; oral 10 mg/kg, Day 9",2.83±0.17
same,ear thickness,"[1]; oral 10 mg/kg, Day 9",0.27±0.00 mm
same,atopic dermatitis score,"[1]; oral 10 mg/kg, Day 10",2.67±0.42
same,ear thickness,"[1]; oral 10 mg/kg, Day 10",0.27±0.00 mm
same,atopic dermatitis score,"[1]; oral 10 mg/kg, Day 11",3.00±0.26
same,ear thickness,"[1]; oral 10 mg/kg, Day 11",0.27±0.00 mm
same,atopic dermatitis score,"[1]; oral 10 mg/kg, Day 12",2.33±0.33
same,ear thickness,"[1]; oral 10 mg/kg, Day 12",0.25±0.00 mm
same,atopic dermatitis score,"[1]; oral 10 mg/kg, Day 13",1.67±0.21
same,ear thickness,"[1]; oral 10 mg/kg, Day 13",0.25±0.00 mm
same,atopic dermatitis score,"[1]; oral 10 mg/kg, Day 14",1.50±0.22
same,ear thickness,"[1]; oral 10 mg/kg, Day 14",0.24±0.01 mm
same,IgE,[1]; oral 0.1 mg/kg,239.26 ± 48.93 ng/mL
same,IgE,[1]; oral 1 mg/kg,167.90 ± 21.03 ng/mL
same,IgE,[1]; oral 10 mg/kg,145.68 ± 23.19 ng/mL
C=C1C(=O)O[C@@H]2[C@@H]3[C@]4(CC[C@@]3(C)O)C[C@]4(C)CC[C@@H]12 [compound 1],ALT,[2]; oral 0.1 mg/kg,173.58 ± 22.75
same,AST,[2]; oral 0.1 mg/kg,424.52 ± 175.34
same,ALT,[2]; oral 1 mg/kg,104.22 ± 5.21
same,AST,[2]; oral 1 mg/kg,237.16±36.70
same,Col1a1,[3]; oral 0.1 mg/kg,1.64±0.16
same,Havcr1,[3]; oral 0.1 mg/kg,175.10±17.63
same,Il1,[3]; oral 0.1 mg/kg,2.62±0.56
same,Il6,[3]; oral 0.1 mg/kg,8.02±0.77
same,Ngal,[3]; oral 0.1 mg/kg,30.52±5.05
same,Tgfb1,[3]; oral 0.1 mg/kg,1.96±0.17
same,Tnf,[3]; oral 0.1 mg/kg,2.89±0.59
same,α-Sma,[3]; oral 0.1 mg/kg,1.82±0.19
same,Col1a1,[3]; oral 1 mg/kg,1.32±0.15
same,Havcr1,[3]; oral 1 mg/kg,99.99±7.98
same,Il1,[3]; oral 1 mg/kg,1.72±0.45
same,Il6,[3]; oral 1 mg/kg,3.98±0.59
same,Ngal,[3]; oral 1 mg/kg,20.17±2.21
same,Tgfb1,[3]; oral 1 mg/kg,1.36±0.10
same,Tnf,[3]; oral 1 mg/kg,2.76±0.71
same,α-Sma,[3]; oral 1 mg/kg,1.42±0.11
same,Suppression Rate (%),[4]; 1 µM,42.3%
same,Suppression Rate (%),[4]; 10 µM,83.3%
